Experimental data as given in ChEMBL document CHEMBL5131541, “Structural Feature Analyzation Strategies toward Discovery of Orally Bioavailable PROTACs of Bruton's Tyrosine Kinase for the Treatment of Lymphoma” (J Med Chem, 2022).
Active and inactive are the calls of the source. No cut-off for these calls is given here.

Columns and labels:
[1] = target: T1, Tyrosine-protein kinase BTK (Homo sapiens, UniProt Q06187); experiment: Inhibition of BTK (unknown origin)
[2] = target: Tyrosine-protein kinase BTK (Mus musculus) (UniProt P35991); experiment: In vivo induction of BTK degradation in ICR mouse monocytes assessed as protein remaining at 100 mg/kg, po after 24 hrs by Western blot analysis relative to control; format: functional, organism-based; settings: Monocyte
[3] = target: T1, Tyrosine-protein kinase BTK; experiment: Induction of BTK degradation in human MINO cells at 100 nM measured after 8 hrs by proteomic analysis; format: cell-based
[4] = AUC (0 to t) in ICR mouse at 100 mg/kg, po measured upto 48 hrs by LC/MS analysis; format: ADME, organism-based; parameters: time < 48 hrs, dose 100 mg/kg, route po; settings: in vivo
OCI-Ly10 [5] = experiment: cells; settings: Homo sapiens
[6] = target: T1, Tyrosine-protein kinase BTK; experiment: Induction of BTK degradation in human MINO cells assessed as reduction in PLCgamma-2 phosphorylation incubated for 24 hrs by Western blot analysis; format: cell-based; settings: dose 1-200 nM, DDE = dose-dependent effect
[7] = Induction of leukocyte c-SRC kinase degradation in human MINO cells at 100 nM measured after 8 hrs by proteomic analysis
[8] = target: Proto-oncogene tyrosine-protein kinase Src (Homo sapiens) (UniProt P12931); experiment: Induction of c-SRC tyrosine kinase degradation in human MINO cells at 100 nM measured after 8 hrs by proteomic analysis; format: cell-based
TMD8 = experiment: cells; settings: Homo sapiens
OCI-Ly10 [9] = experiment: Antitumor activity against human OCILY10 cells xenografted in SCID mouse assessed as tumor growth inhibition at 10 mg/kg, po bid measured after 17 days relative to control; format: functional; parameters: scale not given: the % may be the effect or the level left; settings: time 17 day
[10] = target: T1, Tyrosine-protein kinase BTK; experiment: Induction of BTK degradation in human MINO cells incubated for 24 hrs by Western blot; format: cell-based; settings: dose 1-1000 nM, DDE = dose-dependent effect
[11] = Half life in ICR mouse at 100 mg/kg, po measured upto 48 hrs by LC/MS analysis; format: ADME, organism-based; settings: in vivo
[12] = MRT in ICR mouse at 2 mg/kg, iv measured upto 48 hrs by LC/MS analysis; format: ADME, organism-based; settings: in vivo
HEK293 [13] = experiment: Induction of BTK T316 mutant degradation in human HEK293 cells incubated for 24 hrs by Western blot analysis; format: cell-based; settings: dose 1-1000 nM, DDE = dose-dependent effect
JeKo-1 [14] = experiment: cells; settings: Homo sapiens
[15] = Half life in Sprague-Dawley rat at 5 to 10 mg/kg, po administered as cassette dose measured upto 24 hrs by LC-MS analysis; format: ADME, organism-based; settings: in vivo, dose 5-10 mg/kg
[16] = Clearance in ICR mouse at 2 mg/kg, iv measured upto 48 hrs by LC/MS analysis; format: ADME, organism-based; settings: in vivo
[17] = target: Tyrosine-protein kinase BTK (Mus musculus) (UniProt P35991); experiment: In vivo induction of BTK degradation in ICR mouse monocytes assessed as protein remaining at 100 mg/kg, po after 6 hrs by Western blot analysis relative to control; format: functional, organism-based
[18] = AUC (0 to t) in Sprague-Dawley rat at 5 to 10 mg/kg, po administered as cassette dose measured upto 24 hrs by LC-MS analysis; format: ADME, organism-based; parameters: time < 24 hrs, route po; settings: in vivo, dose 5-10 mg/kg
[19] = AUC (0 to infinity) in ICR mouse at 100 mg/kg, po measured upto 48 hrs by LC/MS analysis; format: ADME, organism-based; parameters: time < 48 hrs, dose 100 mg/kg, route po; settings: in vivo
HEK293 [20] = experiment: Induction of BTK C481 mutant degradation in human HEK293 cells incubated for 24 hrs by Western blot analysis; format: cell-based; settings: dose 1-1000 nM, DDE = dose-dependent effect
JeKo-1 [21] = experiment: cells; settings: Homo sapiens; remark: listed apart in the source
[22] = target: T1, Tyrosine-protein kinase BTK; experiment: Induction of BTK degradation in human MINO cells assessed as maximum degradation incubated for 24 hrs by Western blot based densitometry analysis relative to control; format: cell-based
[23] = Volume of distribution at steady state in ICR mouse at 2 mg/kg, iv measured upto 48 hrs by LC/MS analysis; format: ADME, organism-based; settings: in vivo, read-out: Vdss
[24] = Toxicity in SCID mouse xenografted with OCILY10 cells assessed as effect on body weight at 10 to 30 mg/kg, po bid measured after 17 days; format: organism-based; settings: in vivo, 408 h, dose 10-30 mg/kg, time 17 day
[25] = Tmax in Sprague-Dawley rat at 5 to 10 mg/kg, po administered as cassette dose measured upto 24 hrs by LC-MS analysis; format: ADME, organism-based; settings: in vivo, dose 5-10 mg/kg
OCI-Ly10 [26] = experiment: Antitumor activity against human OCILY10 cells xenografted in SCID mouse assessed as tumor growth inhibition at 30 mg/kg, po bid measured after 17 days relative to control; format: functional; parameters: scale not given: the % may be the effect or the level left; settings: time 17 day
[27] = Dose normalized AUC (0 to t) in Sprague-Dawley rat at 5 to 10 mg/kg, po administered as cassette dose measured upto 24 hrs by LC-MS analysis; format: ADME, organism-based; settings: in vivo, dose 5-10 mg/kg
[28] = Cmax in ICR mouse at 100 mg/kg, po measured upto 48 hrs by LC/MS analysis; format: ADME, organism-based; parameters: dose 100 mg/kg, time < 48 hrs, route po; settings: in vivo
[29] = target: T1, Tyrosine-protein kinase BTK; experiment: Induction of BTK degradation in human MINO cells at 0.1 to 1000 nM incubated for 2 hrs by Western blot analysis; format: cell-based; settings: dose 0.1-1000 nM
[30] = Tmax in ICR mouse at 100 mg/kg, po measured upto 48 hrs by LC/MS analysis; format: ADME, organism-based; settings: in vivo
[31] = target: T1, Tyrosine-protein kinase BTK; experiment: Induction of BTK degradation in human MINO cells incubated for 24 hrs by Western blot based densitometry analysis; format: cell-based
[32] = Oral bioavailability in ICR mouse at 100 mg/kg measured upto 48 hrs by LC/MS analysis; format: ADME, organism-based; settings: in vivo
[33] = target: T1, Tyrosine-protein kinase BTK; experiment: Induction of BTK degradation in human MINO cells assessed as reduction in NFkappaB phosphorylation incubated for 24 hrs by Western blot analysis; format: cell-based; settings: dose 1-200 nM, DDE = dose-dependent effect
[34] = Cmax in Sprague-Dawley rat at 5 to 10 mg/kg, po administered as cassette dose measured upto 24 hrs by LC-MS analysis; format: ADME, organism-based; parameters: time < 24 hrs, route po; settings: in vivo, dose 5-10 mg/kg
[35] = target: T1, Tyrosine-protein kinase BTK; experiment: Induction of BTK degradation in human MINO cells at 0.1 to 1000 nM incubated for 8 hrs by Western blot analysis relative to control; format: cell-based; settings: dose 0.1-1000 nM
[36] = system: Tyrosine-protein kinase BTK (Homo sapiens), Q06187 [C481S]; experiment: Inhibition of BTK C481S mutant (unknown origin)
Sequence of Tyrosine-protein kinase BTK (Homo sapiens), Q06187 [C481S] (Q06187 whole entry C481S): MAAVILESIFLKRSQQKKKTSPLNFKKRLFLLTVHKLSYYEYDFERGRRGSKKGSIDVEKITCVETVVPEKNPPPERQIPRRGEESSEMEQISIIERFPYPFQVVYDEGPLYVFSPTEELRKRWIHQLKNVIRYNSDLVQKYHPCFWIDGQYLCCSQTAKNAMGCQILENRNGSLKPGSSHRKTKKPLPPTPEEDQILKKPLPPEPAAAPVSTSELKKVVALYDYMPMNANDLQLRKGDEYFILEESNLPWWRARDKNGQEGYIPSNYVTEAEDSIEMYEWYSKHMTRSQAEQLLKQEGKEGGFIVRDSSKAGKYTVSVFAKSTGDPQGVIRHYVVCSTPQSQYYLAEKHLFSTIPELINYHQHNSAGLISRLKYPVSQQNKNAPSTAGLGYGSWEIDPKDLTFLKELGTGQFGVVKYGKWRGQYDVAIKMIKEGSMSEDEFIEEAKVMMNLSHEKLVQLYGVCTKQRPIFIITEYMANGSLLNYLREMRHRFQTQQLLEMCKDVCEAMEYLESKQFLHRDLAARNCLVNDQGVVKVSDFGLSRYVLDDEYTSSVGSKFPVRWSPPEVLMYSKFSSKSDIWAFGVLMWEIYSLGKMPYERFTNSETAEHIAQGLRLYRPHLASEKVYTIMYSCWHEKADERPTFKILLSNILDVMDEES

T1 sequence (Q06187 whole entry): as the sequence (Q06187 whole entry C481S) above, with S481C counted along it
Sequence of Tyrosine-protein kinase BTK (Mus musculus) (P35991 whole entry): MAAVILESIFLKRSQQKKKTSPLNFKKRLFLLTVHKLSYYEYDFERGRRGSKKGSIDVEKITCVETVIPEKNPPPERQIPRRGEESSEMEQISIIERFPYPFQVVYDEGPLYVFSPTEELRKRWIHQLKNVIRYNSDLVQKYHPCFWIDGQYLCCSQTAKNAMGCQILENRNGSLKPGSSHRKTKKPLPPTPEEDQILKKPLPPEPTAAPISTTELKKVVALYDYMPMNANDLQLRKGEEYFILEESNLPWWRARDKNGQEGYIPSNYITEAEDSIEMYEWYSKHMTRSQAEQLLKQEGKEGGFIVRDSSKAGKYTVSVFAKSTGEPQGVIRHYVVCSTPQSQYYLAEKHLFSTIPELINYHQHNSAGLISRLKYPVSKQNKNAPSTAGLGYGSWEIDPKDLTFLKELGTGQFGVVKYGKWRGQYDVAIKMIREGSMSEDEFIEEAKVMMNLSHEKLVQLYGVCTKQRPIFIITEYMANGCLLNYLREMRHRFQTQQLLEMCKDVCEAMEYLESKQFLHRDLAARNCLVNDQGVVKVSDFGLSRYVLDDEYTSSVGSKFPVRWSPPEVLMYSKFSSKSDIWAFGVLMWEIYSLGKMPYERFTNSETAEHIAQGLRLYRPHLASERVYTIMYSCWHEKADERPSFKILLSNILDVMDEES
Sequence of Proto-oncogene tyrosine-protein kinase Src (Homo sapiens) (P12931 2-536 limits assumed): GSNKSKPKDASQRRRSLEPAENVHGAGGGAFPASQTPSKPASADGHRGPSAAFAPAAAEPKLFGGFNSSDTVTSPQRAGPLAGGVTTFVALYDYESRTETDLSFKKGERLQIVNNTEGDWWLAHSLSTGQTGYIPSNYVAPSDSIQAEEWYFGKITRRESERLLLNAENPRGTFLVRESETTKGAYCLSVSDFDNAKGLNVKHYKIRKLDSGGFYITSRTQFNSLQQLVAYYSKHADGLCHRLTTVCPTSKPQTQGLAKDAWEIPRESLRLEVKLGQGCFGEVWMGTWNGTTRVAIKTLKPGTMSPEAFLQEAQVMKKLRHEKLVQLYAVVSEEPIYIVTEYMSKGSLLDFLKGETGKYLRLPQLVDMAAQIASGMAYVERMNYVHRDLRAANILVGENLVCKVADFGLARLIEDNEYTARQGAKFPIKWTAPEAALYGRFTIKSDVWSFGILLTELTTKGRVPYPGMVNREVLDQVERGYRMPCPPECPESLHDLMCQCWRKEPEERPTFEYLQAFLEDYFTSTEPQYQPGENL

IC50 [1]: 9 nM
Activity [2]: 24%
Activity [3]: Active
AUC(0-t) at 48 h [4]: 16900 ng·h/mL
IC50 (OCI-Ly10 [5]): 5.9 nM
Activity [6]: Dde
Activity [7]: Active
Activity [8]: Active
IC50 (TMD8): 4.7 nM
Activity [10]: Dde
half-life [11]: 1 h
MRT [12]: 4.5 h
IC50 (JeKo-1 [14]): 105 nM
half-life [15]: 12.7 h
clearance [16]: 11.8 mL/min/kg
Activity [17]: Active
AUC(0-t) at 24 h [18]: 83 ng·h/mL
AUC(0-inf) [19]: 17100 ng·h/mL
IC50 (JeKo-1 [21]): 708 nM
Emax [22]: 96%
Vd [23]: 3.1 L/kg
Tmax [25]: 0.7 h
AUCt/dose [27]: 8 ng·h/mL/mg
Cmax [28]: 3090 ng/mL
Activity [29]: Active
Tmax [30]: 8.3 h
DC50 [31]: 5.8 nM
bioavailability [32]: 12%
Activity [33]: Dde
Cmax [34]: 16 ng/mL
Activity [35]: 91%
inhibition [36]: Active
Structure (SMILES): Nc1ncnc2c1c(-c1ccc(Oc3ccccc3)cc1)nn2C1CCN(C2CCN(CC#Cc3ccc4c(c3)CN(C3CCC(=O)NC3=O)C4=O)CC2)CC1 (configuration not stated)
Activity (OCI-Ly10 [9]): 50.9%
Activity (HEK293 [13]): Dde
Activity (HEK293 [20]): Dde
Activity [24]: Non-Toxic
Activity (OCI-Ly10 [26]): 96.9%
